From patent US5135937A, “Cycloalkylene azoles and pharmaceutical preparations obtained therefrom” (Schering Aktiengesellschaft, priority 1989, dated 1992)
“And” between values parts separate entries of the source, which are not always exact repeats. Equal entries are not always repeated. Structures can show the parent of a compound that is named as a salt. Where two headings read alike, the source gives them in different places.

What was measured:
aromatase = target: T1, aromatase (Homo sapiens, UniProt P11511); test: Aromatase inhibition in human placenta (Test a): microsomes, release of 3H2O from [1β-3H]-androstenedione, Ki by Dixon plot; format: biochemical
T1 construct: microsomes obtained from human placenta; from tissue; host or cells: human placenta (microsomes)
T1 sequence (P11511 1-503): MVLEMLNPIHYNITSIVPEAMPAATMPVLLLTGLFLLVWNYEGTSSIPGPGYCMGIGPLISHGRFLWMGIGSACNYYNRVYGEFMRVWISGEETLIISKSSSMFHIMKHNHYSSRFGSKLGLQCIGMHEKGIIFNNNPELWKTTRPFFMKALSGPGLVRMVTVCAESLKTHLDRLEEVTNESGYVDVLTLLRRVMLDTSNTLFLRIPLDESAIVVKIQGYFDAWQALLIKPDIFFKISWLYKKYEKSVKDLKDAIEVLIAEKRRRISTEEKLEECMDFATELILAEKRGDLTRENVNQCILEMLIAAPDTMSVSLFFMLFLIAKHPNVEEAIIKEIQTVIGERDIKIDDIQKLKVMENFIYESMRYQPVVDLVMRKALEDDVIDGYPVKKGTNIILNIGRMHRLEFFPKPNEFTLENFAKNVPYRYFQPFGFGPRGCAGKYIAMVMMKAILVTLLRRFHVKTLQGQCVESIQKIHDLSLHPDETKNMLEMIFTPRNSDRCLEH
Description: (§1) The following compounds are examined as representative:
Aromatase Inhibition in Human Placenta
The abilities of the compounds of inhibiting the enzyme system of aromatase is tested on microsomes obtained from human placenta.

[1] = system: Androstenedione-Induced Uterus Growth; test: Influence on androstenedione-induced uterus growth in infantile rats (Test b); format: in vivo, rat; conditions: 3 days; for Uterus Weight: infantile female rats; for Inhibition in % (of uterus growth, based on the androstenedione group): vehicle basic value deducted
Description: as §1
Influence on Androstenedione-Induced Uterus Growth in Infantile Rats
Infantile female rats receive once daily the compound to be tested in combination with androstenedione over a period of three days. One group receives only androstenedione, and a further group only the vehicle. One day after the last treatment, the animals are sacrificed by decapitation and exsanguination, and the fresh uterus weights (without content) are determined. The uterus weights are calculated for mg/100 g body weight. The average value and standard deviation are calculated for each group. Variance analysis is used to check the significances of the differences with respect to the control group (androstenedione group and, respectively, vehicle group). Furthermore, the percentage inhibition of uterus growth is determined, based on the androstenedione group. In this determination, the uterus weight of the vehicle group (basic value) is deducted from the corresponding weight of the androstenedione group. The individual dosage groups, after subtracting the basic value, are based on the thus-obtained value.

[2] = human placenta microsomes, [1β-3H]-androstenedione substrate, 4-OH-androstenedione as reference compound, read-out: Ki, Aromatase
[3] = compound + AD, 0.2 + 30 mg/kg/day
[4] = compound + AD, 2.0 + 30 mg/kg/day
[5] = compound + AD, 0.2 + 30 mg/kg/day, hydrochloride, 30 mg/kg/day

Structure (SMILES) | Ki (aromatase; [2]) | Uterus Weight [1, 4] | Inhibition in % (of uterus growth, based on the androstenedione group) [1, 4] | further results
Cl.N#Cc1ccc(C(=C2CCCCC2)n2ccnc2)cc1 [Compound A, 4-[1-Cyclohexylidene-1-(1-imidazolyl)methyl]benzonitrile, hydrochloride] | 0.19 nM | 100.1 ± 18.8 mg/100 g BW | 74% | Uterus Weight [1, 3]: 108.2 ± 11.9 mg/100 g BW; Inhibition in % (of uterus growth, based on the androstenedione group) [1, 3]: 69%
N#Cc1ccc(C(=C2CCCCC2)n2ccnc2)cc1 [Compound B, 4-[1-Cyclohexylidene-1-(1-imidazolyl)methyl]benzonitrile] | 0.48 nM | 72.5 ± 10.3 mg/100 g BW | 82% | 
C[C@]12CCC(=O)C=C1CC[C@@H]1[C@@H]2CC[C@]2(C)C(=O)CC[C@@H]12 [Androstenedione, reference compound] |  |  |  | Uterus Weight ([1]; androstenedione (AD) alone 30 mg/kg/day): 213.6 ± 32.4 mg/100 g BW and 183.5 ± 22.7 mg/100 g BW
N#Cc1ccc(C2CCCc3cncn32)cc1 (racemic) [D, 5-(p-cyanophenyl)-5,6,7,8tetrahydroimidazo[-1,5a]pyridine, hydrochloride, reference compound] |  |  |  | Uterus Weight [1, 5]: 69.9 ± 6.6 mg/100 g BW and 83.2 ± 6.9 mg/100 g BW; Inhibition in % (of uterus growth, based on the androstenedione group) [1, 5]: 84% and 86%
N#Cc1ccc(C(=C2CCCC2)n2ccnc2)cc1 [C, 4-[1-Cyclopentylidene-1-(1-imidazolyl)methyl]benzonitrile] |  | 69.2 ± 5.7 mg/100 g BW | 85% | 
C[C@]12CCC(=O)C(O)=C1CC[C@@H]1[C@@H]2CC[C@]2(C)C(=O)CC[C@@H]12 [4-OH-Androstenedione, reference compound] |  |  |  | Ki (aromatase; Ki, Aromatase): 62 nM and 41 nM
